These are literature values, as cited in EP4772635A1, “RNAI AGENT TARGETING APP AND PHARMACEUTICAL USE THEREOF” (Tuojie Biotech (Shanghai) Co., Ltd., priority 2023, dated 2025).

The conditions of the data set: octanol-water partition coefficient, illustrative values in the definitions.

In the case of `NCCCCCCO` [6-aminohexanol], the logKow result is on record as “about 0.7”.

On to `CC(C)CCC[C@@H](C)[C@H]1CC[C@H]2[C@@H]3CC=C4C[C@@H](OC(=O)NCCCCCCO)CC[C@]4(C)[C@H]3CC[C@]12C` [cholesteryl N-(hexan-6-ol)carbamate], for which the logKow is on record as 10.7.
